# Measured values taken from patent publication US9493435B2, “IRE-1α inhibitors” (MannKing Corporation, priority 2009, dated 2016).
# Counter-ions that a name gives are not always drawn.
# Target: human IRE-1α (GST-IRE-1α) (Homo sapiens (Human), UniProt O75460)
# Assay: IRE-1α assay (cleavage of mini-XBP-1 mRNA stem-loop substrate)
# Assay type: biochemical
# Details: average IC50 for inhibition of IRE-1α in vitro
# Protocol: A fusion protein comprising glutathione S transferase (GST) and human IRE-1α (GST-IRE-1α) obtained from a 500 ml baculovirus-infected insect cell culture can be used to measure IRE-1α activity in vitro. Five μl of a reaction mixture comprising 1× reaction buffer (5× reaction buffer is 100 mM Hepes pH 7.5, 250 mM KOAc, 2.5 mM MgCl2), 3 mM DTT, and 0.4% polyethylene glycol water is added to each well of 384 well plates. Twenty-five nanoliters of a 1 mM test compound solution are added to test wells. […] Negative control wells contain only reaction mixture and test compound. After spinning the plates at 1200 rpm for 30 seconds, 3 μl of an IRE-1α human mini-XBP-1 mRNA stem-loop substrate [NT] ID NO:1), labeled with the fluorescent dye Cy5 at the [NT] end, are added to each well of a control plate. The plates are again spun at 1200 rpm for 30 seconds. […] The plates are covered with lids and incubated for one hour at 30° C. The plates are then transferred to an […] microplate reader. Data is analyzed using data analysis software, and the percent activity of IRE-1α is calculated.
# Sequence of human IRE-1α (GST-IRE-1α) (O75460 19-977): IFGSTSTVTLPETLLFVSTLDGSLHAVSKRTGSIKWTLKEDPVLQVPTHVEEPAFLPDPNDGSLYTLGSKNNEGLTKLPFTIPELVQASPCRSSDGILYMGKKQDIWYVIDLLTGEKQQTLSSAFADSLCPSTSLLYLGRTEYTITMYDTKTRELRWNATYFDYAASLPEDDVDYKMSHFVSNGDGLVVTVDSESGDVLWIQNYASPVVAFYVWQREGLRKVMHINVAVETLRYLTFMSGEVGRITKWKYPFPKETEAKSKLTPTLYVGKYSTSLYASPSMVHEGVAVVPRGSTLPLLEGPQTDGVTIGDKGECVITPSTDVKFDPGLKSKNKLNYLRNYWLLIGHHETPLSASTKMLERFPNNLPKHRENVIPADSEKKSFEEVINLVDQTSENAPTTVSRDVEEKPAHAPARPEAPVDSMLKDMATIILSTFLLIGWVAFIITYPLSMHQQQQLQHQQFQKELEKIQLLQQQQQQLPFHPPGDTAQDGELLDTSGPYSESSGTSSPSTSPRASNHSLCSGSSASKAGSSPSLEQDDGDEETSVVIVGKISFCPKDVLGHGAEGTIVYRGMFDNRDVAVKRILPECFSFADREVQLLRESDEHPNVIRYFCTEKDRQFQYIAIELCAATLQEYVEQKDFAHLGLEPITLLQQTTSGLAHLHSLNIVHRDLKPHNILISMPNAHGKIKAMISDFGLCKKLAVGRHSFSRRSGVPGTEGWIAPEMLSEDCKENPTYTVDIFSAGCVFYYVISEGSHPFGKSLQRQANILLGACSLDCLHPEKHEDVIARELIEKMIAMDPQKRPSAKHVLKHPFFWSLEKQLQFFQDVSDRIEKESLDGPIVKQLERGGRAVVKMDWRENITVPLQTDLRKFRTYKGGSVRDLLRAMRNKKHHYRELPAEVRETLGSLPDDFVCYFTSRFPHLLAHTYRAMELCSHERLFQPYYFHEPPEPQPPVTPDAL
row,SMILES,IC50 [nM]
1,Cc1nc(-c2ccc3c(C=O)c(O)ccc3c2)sc1C(=O)N1CCN(C)CC1 [Compound 65],< 100
2,Cc1cc(C(=O)N(C)C)sc1-c1ccc2c(C=O)c(O)ccc2c1 [Compound 33],< 100
3,O=Cc1c(O)ccc2cc(CCC(=O)N3CCOCC3)ccc12 [Compound 52],< 1000
4,CNC(=O)c1ccc(-c2ccc3c(C=O)c(O)ccc3c2)cc1 [Compound 9],> 1000
5,"O=Cc1c(O)ccc2cc(N3CCN(Cc4ccccn4)CC3)ccc12 [Compound 96, 2-Hydroxy-6-(4-pyridin-2-ylmethyl-piperazin-1-yl)-naphthalene-1-carbaldehyde]",1000
6,CN(C)C1CCN(c2ccc3c(C=O)c(O)ccc3c2)CC1 [Compound 85],< 10
7,CC(C)N1CCN(c2ccc3ccc(O)c(C=O)c3c2)CC1 [Compound 159],> 1000
8,O=Cc1c(O)ccc2ccc(N3CCOCC3)cc12 [Compound 88],> 1000
9,CS(=O)(=O)NC1CCN(c2ccc3c(C=O)c(O)ccc3c2)CC1 [Compound 93],> 1000
10,CN(C)C(=O)C1CCN(c2ccc3ccc(O)c(C=O)c3c2)C1 (stereo not drawn) [Compound 132],> 1000
11,CN1CCN(C2CCN(c3ccc4c(C=O)c(O)ccc4c3)CC2)CC1 [Compound 86],< 10
12,O=Cc1c(O)ccc2cc(-c3ccc(C(=O)NCCN4CCOCC4)o3)ccc12 [Compound 71],< 100
13,CN1CCN(C(=O)c2ccc(-c3ccc4c(C=O)c(O)ccc4c3)cc2)CC1 [Compound 5],< 100
14,O=Cc1c(O)ccc2cc(-c3ccc(C(=O)NC4CCCNC4)cc3)ccc12 (stereo not drawn) [Compound 49],< 100
15,CCOC(=O)CCc1ccc2c(C=O)c(O)ccc2c1 [Compound 40],> 1000
16,NCCN1CCN(C(=O)c2ccc(-c3ccc4c(C=O)c(O)ccc4c3)s2)CC1 [Compound 55],< 1000
17,O=Cc1c(O)ccc2cc(-c3ccc(C(=O)N4CCOCC4)cn3)ccc12 [Compound 101],< 1000
18,COCCNC(=O)c1ccc(-c2ccc3c(C=O)c(O)ccc3c2)cc1 [Compound 10],< 1000
19,O=Cc1c(O)ccc2cc(N3CCN(Cc4ccccc4)CC3)ccc12 [Compound 95],> 1000
20,CN(C)C(=O)C1CCN(c2ccc3c(C=O)c(O)ccc3c2)C1 (stereo not drawn) [Compound 128],> 1000
21,CN1CCN(c2ccc3ccc(O)c(C=O)c3c2)CC1 [Compound 87],> 1000
22,CNC1CCN(c2ccc3c(C=O)c(O)ccc3c2)C1 (stereo not drawn) [Compound 122],> 1000
23,Cc1nc(-c2ccc3c(C=O)c(O)ccc3c2)sc1C(=O)N1CCCC1 [Compound 140],< 100
24,O=Cc1c(O)ccc2cc(-c3ccc(C(=O)N4CCNCC4)s3)ccc12 [Compound 53],< 1000
25,O=Cc1c(O)ccc2cc(-c3ccc(C(=O)NCCCN4CCOCC4)s3)ccc12 [Compound 37],< 100
26,CCN(CC)C(=O)c1cccc(-c2ccc3c(C=O)c(O)ccc3c2)n1 [Compound 7],< 1000

row,SMILES,IC50 [nM]
1,O=Cc1c(O)ccc2cc(-c3cc(C(=O)N4CCOCC4)ccc3Cl)ccc12 [Compound 24],> 1000
2,"CN1CCN(c2ccc3c(C=O)c(O)ccc3c2)CC1 [Compound 58, 2-Hydroxy-6-(4-methyl-piperazin-1-yl)-naphthalene-1-carbaldehyde hydrochloride]",> 1000
3,O=Cc1c(O)ccc2cc(N3CCC(NCc4cccnc4)CC3)ccc12 [Compound 116],> 1000
4,CN(Cc1ccncc1)C1CCN(c2ccc3c(C=O)c(O)ccc3c2)C1 (stereo not drawn) [Compound 147],> 1000
5,CCN(CC)C(=O)c1ccc(-c2ccc3c(C=O)c(O)ccc3c2)cc1 [Compound 2],< 1000
6,CN1CCN(C(=O)C2CCN(c3ccc4ccc(O)c(C=O)c4c3)C2)CC1 (stereo not drawn) [Compound 150],> 1000
7,"O=Cc1c(O)ccc2cc(N3CCC(C(=O)N4CCOCC4)C3)ccc12 (stereo not drawn) [Compound 111, 2-Hydroxy-6-[3-(morpholine-4-carbonyl)-pyrrolidin-1-yl]-naphthalene-1-carbaldehyde]",< 1000
8,O=Cc1c(O)ccc2cc(N3CCC(NCc4ccccc4)CC3)ccc12 [Compound 97],< 1000
9,O=Cc1c(O)ccc2cc(-c3ccc(C(=O)N4CC5CC4CN5)s3)ccc12 (stereo not drawn) [Compound 75],< 100
10,CN1CCN(C2CCN(c3ccc4ccc(O)c(C=O)c4c3)CC2)CC1 [Compound 89],> 1000
11,CN1CCC(NC(=O)c2ccc(-c3ccc4c(C=O)c(O)ccc4c3)cc2)CC1 [Compound 143],> 1000
12,CN(C)CCNC(=O)c1ccc(-c2ccc3c(C=O)c(O)ccc3c2)s1 [Compound 72],< 100
13,CNC(=O)c1ccc(-c2ccc3c(C=O)c(O)ccc3c2)s1 [Compound 11],< 1000
14,CN(C1CCCN(c2ccc3c(C=O)c(O)ccc3c2)C1)S(C)(=O)=O (stereo not drawn) [Compound 123],< 1000
15,CN1CCN(c2ncc(-c3ccc4c(C=O)c(O)ccc4c3)cn2)CC1 [Compound 80],< 100
16,O=Cc1c(O)ccc2cc(N3CCN(C4CCNCC4)CC3)ccc12 [Compound 113],> 1000
17,O=Cc1c(O)ccc2cc(-c3ccc(C(=O)NC4CCNCC4)cc3)ccc12 [Compound 48],< 100
18,Cc1cc(C(=O)N2CCOCC2)sc1-c1ccc2c(C=O)c(O)ccc2c1 [Compound 25],< 100
19,O=Cc1c(O)ccc2cc(N3CCC(C(=O)N4CCOCC4)CC3)ccc12 [Compound 110],< 1000
20,CC(=O)NC1CCN(c2ccc3c(C=O)c(O)ccc3c2)CC1 [Compound 84],< 1000
21,O=Cc1c(O)ccc2cc(Oc3ccc(C(=O)O)cc3)ccc12 [Compound 182],< 100
22,COCCNC(=O)c1ccc(-c2ccc3c(C=O)c(O)ccc3c2)cc1 [Compound 170],> 1000
23,O=Cc1c(O)ccc2ccc(OS(=O)(=O)C(F)(F)F)cc12 [Compound 177],< 1000
24,CN1CCN(C(=O)c2ccc(Cl)c(-c3ccc4c(C=O)c(O)ccc4c3)c2)CC1 [Compound 30],< 1000
25,CS(=O)(=O)NC1CCN(c2ccc3c(C=O)c(O)ccc3c2)CC1 [Compound 175],> 1000

# Tested on: IRE-1α-mediated XBP-1 splicing in human myeloma MM.1s cells
# Assay: Cellular XBP-1 splicing assay in myeloma cells (RT-PCR)
# Assay type: cell-based
# Details: Homo sapiens, MM1.S; average EC50, endogenous XBP-1 splicing in myeloma cells, DTT stress
# Protocol: After an additional 45 minutes (2 hours total) with compound and DTT, the cells are harvested with TRIZOL® (a mono-phasic solution of phenol and guanidine isothiocyanate), and total RNA is prepared as directed by the manufacturer (Invitrogen). Human XBP-1 is amplified by RT-PCR with the following primers, which flank the 26 base unconventional intron excised by IRE-1α:
# RT-PCR of unstressed (U) cells then generates the upper band. When cells are stressed (S) with the endoplasmic reticulum (ER) stressing agent DTT, IRE-1α is activated due to accumulating unfolded protein and the resulting RT-PCR product is 26 base pairs shorter.
# Compounds which pass specificity assays are assayed for cellular EC50 using endogenous XBP-1 splicing in myeloma cells. XBP-1 is regulated through the excision of a 26 nucleotide intron from the XBP-1 mRNA by the highly specific endoribonuclease activity of IRE-1α. […] This splicing event is used to measure IRE-1α activity on XBP-1 mRNA in cells and tissues.
# Briefly, compounds are incubated in the presence or absence of an ER stress agent (e.g., DTT), and the ratio of XBP-1u (unspliced) to XBP-1s (spliced) is quantified by RT-PCR.
row,SMILES,EC50 [nM]
1,Cc1nc(-c2ccc3c(C=O)c(O)ccc3c2)sc1C(=O)N1CCN(C)CC1 [Compound 65],< 10000
2,Cc1cc(C(=O)N(C)C)sc1-c1ccc2c(C=O)c(O)ccc2c1 [Compound 33],< 10000
3,O=Cc1c(O)ccc2cc(CCC(=O)N3CCOCC3)ccc12 [Compound 52],< 10000
4,CNC(=O)c1ccc(-c2ccc3c(C=O)c(O)ccc3c2)cc1 [Compound 9],> 10000
5,"O=Cc1c(O)ccc2cc(N3CCN(Cc4ccccn4)CC3)ccc12 [Compound 96, 2-Hydroxy-6-(4-pyridin-2-ylmethyl-piperazin-1-yl)-naphthalene-1-carbaldehyde]",> 10000
6,CN(C)C1CCN(c2ccc3c(C=O)c(O)ccc3c2)CC1 [Compound 85],< 10000
7,CC(C)N1CCN(c2ccc3ccc(O)c(C=O)c3c2)CC1 [Compound 159],> 10000
8,O=Cc1c(O)ccc2ccc(N3CCOCC3)cc12 [Compound 88],< 10000
9,CS(=O)(=O)NC1CCN(c2ccc3c(C=O)c(O)ccc3c2)CC1 [Compound 93],< 10000
10,CN(C)C(=O)C1CCN(c2ccc3ccc(O)c(C=O)c3c2)C1 (stereo not drawn) [Compound 132],> 10000
11,CN1CCN(C2CCN(c3ccc4c(C=O)c(O)ccc4c3)CC2)CC1 [Compound 86],< 10000
12,O=Cc1c(O)ccc2cc(-c3ccc(C(=O)NCCN4CCOCC4)o3)ccc12 [Compound 71],< 10000
13,CN1CCN(C(=O)c2ccc(-c3ccc4c(C=O)c(O)ccc4c3)cc2)CC1 [Compound 5],< 10000
14,O=Cc1c(O)ccc2cc(-c3ccc(C(=O)NC4CCCNC4)cc3)ccc12 (stereo not drawn) [Compound 49],< 10000
15,CCOC(=O)CCc1ccc2c(C=O)c(O)ccc2c1 [Compound 40],> 10000
16,NCCN1CCN(C(=O)c2ccc(-c3ccc4c(C=O)c(O)ccc4c3)s2)CC1 [Compound 55],< 10000
17,O=Cc1c(O)ccc2cc(-c3ccc(C(=O)N4CCOCC4)cn3)ccc12 [Compound 101],> 10000
18,COCCNC(=O)c1ccc(-c2ccc3c(C=O)c(O)ccc3c2)cc1 [Compound 10],< 10000
19,O=Cc1c(O)ccc2cc(N3CCN(Cc4ccccc4)CC3)ccc12 [Compound 95],> 10000
20,CN(C)C(=O)C1CCN(c2ccc3c(C=O)c(O)ccc3c2)C1 (stereo not drawn) [Compound 128],> 10000
21,CN1CCN(c2ccc3ccc(O)c(C=O)c3c2)CC1 [Compound 87],> 10000
22,CNC1CCN(c2ccc3c(C=O)c(O)ccc3c2)C1 (stereo not drawn) [Compound 122],< 10000
23,Cc1nc(-c2ccc3c(C=O)c(O)ccc3c2)sc1C(=O)N1CCCC1 [Compound 140],< 10000
24,O=Cc1c(O)ccc2cc(-c3ccc(C(=O)N4CCNCC4)s3)ccc12 [Compound 53],< 10000

row,SMILES,EC50 [nM]
1,O=Cc1c(O)ccc2cc(-c3ccc(C(=O)NCCCN4CCOCC4)s3)ccc12 [Compound 37],< 10000
2,CCN(CC)C(=O)c1cccc(-c2ccc3c(C=O)c(O)ccc3c2)n1 [Compound 7],10000
3,O=Cc1c(O)ccc2cc(-c3cc(C(=O)N4CCOCC4)ccc3Cl)ccc12 [Compound 24],> 10000
4,"CN1CCN(c2ccc3c(C=O)c(O)ccc3c2)CC1 [Compound 58, 2-Hydroxy-6-(4-methyl-piperazin-1-yl)-naphthalene-1-carbaldehyde hydrochloride]",< 10000
5,O=Cc1c(O)ccc2cc(N3CCC(NCc4cccnc4)CC3)ccc12 [Compound 116],< 10000
6,CN(Cc1ccncc1)C1CCN(c2ccc3c(C=O)c(O)ccc3c2)C1 (stereo not drawn) [Compound 147],> 10000
7,CCN(CC)C(=O)c1ccc(-c2ccc3c(C=O)c(O)ccc3c2)cc1 [Compound 2],< 10000
8,CN1CCN(C(=O)C2CCN(c3ccc4ccc(O)c(C=O)c4c3)C2)CC1 (stereo not drawn) [Compound 150],> 10000
9,"O=Cc1c(O)ccc2cc(N3CCC(C(=O)N4CCOCC4)C3)ccc12 (stereo not drawn) [Compound 111, 2-Hydroxy-6-[3-(morpholine-4-carbonyl)-pyrrolidin-1-yl]-naphthalene-1-carbaldehyde]",> 10000
10,O=Cc1c(O)ccc2cc(N3CCC(NCc4ccccc4)CC3)ccc12 [Compound 97],> 10000
11,O=Cc1c(O)ccc2cc(-c3ccc(C(=O)N4CC5CC4CN5)s3)ccc12 (stereo not drawn) [Compound 75],< 10000
12,CN1CCN(C2CCN(c3ccc4ccc(O)c(C=O)c4c3)CC2)CC1 [Compound 89],> 10000
13,CN1CCC(NC(=O)c2ccc(-c3ccc4c(C=O)c(O)ccc4c3)cc2)CC1 [Compound 143],< 10000
14,CN(C)CCNC(=O)c1ccc(-c2ccc3c(C=O)c(O)ccc3c2)s1 [Compound 72],< 10000
15,CNC(=O)c1ccc(-c2ccc3c(C=O)c(O)ccc3c2)s1 [Compound 11],10000
16,CN1CCN(c2ncc(-c3ccc4c(C=O)c(O)ccc4c3)cn2)CC1 [Compound 80],< 10000
17,O=Cc1c(O)ccc2cc(N3CCN(C4CCNCC4)CC3)ccc12 [Compound 113],> 10000
18,O=Cc1c(O)ccc2cc(-c3ccc(C(=O)NC4CCNCC4)cc3)ccc12 [Compound 48],< 10000
19,Cc1cc(C(=O)N2CCOCC2)sc1-c1ccc2c(C=O)c(O)ccc2c1 [Compound 25],> 10000
20,O=Cc1c(O)ccc2cc(N3CCC(C(=O)N4CCOCC4)CC3)ccc12 [Compound 110],> 10000
21,CC(=O)NC1CCN(c2ccc3c(C=O)c(O)ccc3c2)CC1 [Compound 84],> 10000
22,O=Cc1c(O)ccc2cc(Oc3ccc(C(=O)O)cc3)ccc12 [Compound 182],< 10000
23,O=Cc1c(O)ccc2ccc(OS(=O)(=O)C(F)(F)F)cc12 [Compound 177],> 10000

# Same assay, conditions: average EC50, endogenous XBP-1 splicing in myeloma cells, DTT stress
row,SMILES,EC50 [nM]
1,COCCNC(=O)c1ccc(-c2ccc3c(C=O)c(O)ccc3c2)cc1 [Compound 170],< 10000
